According to publication PMC11940309, “Endocrine-Disrupting Activities of Flavones on Steroid Receptors: Structural Requirements and Synthesis of Novel Flavone with Improved Estrogenic Activity” (Biomedicines, 2025):
Read-outs that look alike come from different tables or passages of the source.

Legend:
[1] = target: T1, progesterone receptor (PR) (Homo sapiens, UniProt P06401); test: PR-mediated induction of transcription by R5020 in T47D K5pLuc cells (luciferase reporter and endogenous alkaline phosphatase); format: cell-based; settings: for inhibition at 4 µM / inhibition at 8 µM: T47D; for inhibition at 4 µM / inhibition at 8 µM / % Inhibition of PR Induction: R5020 1.0 nM
T1 sequence (P06401 679-933 limits assumed): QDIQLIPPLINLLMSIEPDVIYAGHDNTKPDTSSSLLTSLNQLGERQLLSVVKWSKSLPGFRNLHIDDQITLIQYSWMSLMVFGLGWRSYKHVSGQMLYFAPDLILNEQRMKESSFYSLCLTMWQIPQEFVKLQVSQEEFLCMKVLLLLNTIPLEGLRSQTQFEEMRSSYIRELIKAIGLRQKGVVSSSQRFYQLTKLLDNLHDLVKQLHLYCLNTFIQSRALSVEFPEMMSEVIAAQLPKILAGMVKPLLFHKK
Text: (§1) The engineered T47D breast cancer cell lines employed for the assessment of flavonoid activity on glucocorticoid receptor (GR) and progesterone receptor (PR) signaling permitted the facile quantitation transcription of both an endogenous gene and a stably integrated reporter gene. […] The T47D K5pLuc cell line responds to progestins via induction of a stably integrated cytokeratin 5-luciferase reporter gene. […] For assessment of the effect of the test compounds on androgen receptor (AR) signaling, we used the HeLa13 cell line engineered to stably express human AR and a PSA-luciferase reporter gene containing a 4× multimerized PSA upstream enhancer ARE1 linked to the E4 TATA box and luciferase gene.
Experiments testing the effect of flavonoids on progesterone receptor-mediated transcription employed T47D K5pluc cells. The protocol was the same as that for T47D (A1-2) cells except the medium was Dulbecco’s Modified Eagle’s Medium supplemented with 10% FBS, insulin (10 nM), puromycin 200 ng/mL, nonessential amino acids, penicillin (100 U/mL), and streptomycin (100 μg/mL). When treated with hormone, the synthetic progestin, R5020, was used at 1.0 nM. Hormone treatment was for 20 h at which time cells were harvested for assay of alkaline phosphatase and luciferase.
(§2) For all cell lines, cell harvesting and the luminescence assay for alkaline phosphatase and/or luciferase were performed as previously described in detail. Each condition was performed in quadruplicate. […] Percent inhibition is 100 minus the percent induction.

[2] = target: T2, glucocorticoid receptor (GR) (Rattus norvegicus, UniProt P06536); test: GR-mediated induction of transcription by dexamethasone in T47D (A1-2) cells (luciferase reporter and endogenous alkaline phosphatase); format: cell-based, human; settings: dexamethasone 1.0 nM; for inhibition at 8 µM / inhibition at 4 µM: T47D
T2 construct: host or cells: T47D (A1-2)
T2 sequence (P06536 1-795): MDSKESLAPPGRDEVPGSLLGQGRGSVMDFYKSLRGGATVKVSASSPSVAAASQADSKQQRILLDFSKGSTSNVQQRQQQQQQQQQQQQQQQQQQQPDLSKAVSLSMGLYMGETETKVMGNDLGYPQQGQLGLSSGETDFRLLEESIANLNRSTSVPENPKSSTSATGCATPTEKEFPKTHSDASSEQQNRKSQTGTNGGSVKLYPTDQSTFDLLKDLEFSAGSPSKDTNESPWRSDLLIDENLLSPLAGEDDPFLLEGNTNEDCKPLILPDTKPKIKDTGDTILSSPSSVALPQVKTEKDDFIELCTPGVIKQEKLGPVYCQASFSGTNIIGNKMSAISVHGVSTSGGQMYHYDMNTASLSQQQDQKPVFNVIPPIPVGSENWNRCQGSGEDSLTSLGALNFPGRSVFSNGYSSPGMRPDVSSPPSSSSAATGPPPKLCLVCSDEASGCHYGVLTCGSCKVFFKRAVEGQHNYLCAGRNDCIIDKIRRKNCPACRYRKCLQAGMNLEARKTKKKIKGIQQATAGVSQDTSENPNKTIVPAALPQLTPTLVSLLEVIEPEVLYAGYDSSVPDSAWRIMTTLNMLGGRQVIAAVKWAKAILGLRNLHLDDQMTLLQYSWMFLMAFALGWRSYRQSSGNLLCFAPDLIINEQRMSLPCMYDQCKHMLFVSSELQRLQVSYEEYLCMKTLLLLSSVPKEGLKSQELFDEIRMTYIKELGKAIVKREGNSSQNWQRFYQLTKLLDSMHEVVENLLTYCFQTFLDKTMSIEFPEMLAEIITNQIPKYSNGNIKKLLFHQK
Text: as §1
For assessment of the effect of flavones on glucocorticoid receptors, T47D (A1-2) cells were maintained in Minimal Essential Medium, 10% Fetal Bovine Serum (FBS), 0.2 mg/mL G418, penicillin (100 U/mL), and streptomycin (100 μg/mL). For experiments, medium was removed, and cultures rinsed with Phosphate-Buffered Saline (PBS) + 1.0 mM EDTA (PBSE), detached with trypsin, pelleted, and resuspended in medium to a concentration of 500,000 cells/mL. Aliquots of cell suspension, 100 microliters/well, were transferred into a 96-well, white, flat-bottomed plate and allowed to attach for 24 h. The following day, each well was treated with a 50 microliter aliquot of a test compound diluted in medium. Controls received medium containing DMSO diluted in the same way. For hormone treatment, dexamethasone was diluted in medium and added as 50 microliter aliquots so that the final volume in each well was 200 microliters. The final concentration of dexamethasone was 1.0 nM. Controls received medium without hormone. Hormone treatment was for 20 h at which time cells were harvested for assay of alkaline phosphatase and luciferase.
as §2

[3] = 4 µM, AP (alkaline phosphatase)
[4] = 8 µM, AP (alkaline phosphatase)
[5] = 8 µM, AP (alkaline phosphatase), read-out: % Inhibition of GR Induction
[6] = 8 µM, LUC (luciferase), read-out: % Inhibition of GR Induction
[7] = 4 µM, AP (alkaline phosphatase), read-out: % Inhibition of GR Induction
[8] = 4 µM, LUC (luciferase), read-out: % Inhibition of GR Induction
[9] = read-out: % Inhibition of GR Induction, 4 µM, AP (alkaline phosphatase)
[10] = read-out: % Inhibition of GR Induction, 4 µM, LUC (luciferase)
[11] = read-out: % Inhibition of GR Induction, 8 µM, AP (alkaline phosphatase)
[12] = read-out: % Inhibition of GR Induction, 8 µM, LUC (luciferase)

| inhibition at 4 µM [1, 3] [%] | inhibition at 4 µM ([1]; 4 µM, LUC (luciferase)) [%] | inhibition at 8 µM [1, 4] [%] | inhibition at 8 µM ([1]; 8 µM, LUC (luciferase)) [%] | inhibition at 8 µM [2, 5] [%] | inhibition at 8 µM [2, 6] [%] | inhibition at 4 µM [2, 7] [%] | inhibition at 4 µM [2, 8] [%] | SMILES | also measured |
| --- | --- | --- | --- | --- | --- | --- | --- | --- | --- |
| 41 | -13 | 38 | -126 | 5 | -52 |  |  | O=c1c(-c2ccc(O)cc2)coc2cc(O)ccc12 [7,4′-dihydroxyisoflavone] |  |
| 10 | -66 | 40 | -107 | 34 | -24 | 13 | 4 | O=c1cc(-c2ccccc2)oc2ccccc12 [flavone] |  |
| 49 | -96 | 32 |  |  |  | 22 | -7 | O=c1c(-c2ccc(O)cc2)coc2cc(O)cc(O)c12 [5,7,4′-trihydroxyisoflavone] |  |
| 39 | -147 | 37 | -103 | 39 | -82 | 26 | -44 | O=c1cc(-c2ccc(O)cc2)oc2ccc(O)cc12 [6,4′-dihydroxyflavone] |  |
| 13 | -11 | 39 | -10 | 36 | -87 | 21 | -117 | O=c1cc(-c2ccc(O)c(O)c2)oc2cc(O)ccc12 [7,3′,4′-trihydroxyflavone] |  |
| 43 | 52 | 90 | 98 | 7 | 19 | 8 | 15 | O=C1CC(c2ccc(O)cc2)Oc2cc(O)cc(O)c21 (stereo not shown) [5,7,4′-trihydroxyflavanone] |  |
| 78 | 71 | 89 | 90 | 38 | -6 | 22 | 0 | O=c1cc(-c2ccccc2)oc2cc(O)cc(O)c12 [5,7-dihydroxyflavone] | inhibition of PR-mediated gene expression of both reporter genes ([1]; 4.0 micromolar): at least 70%; inhibition of PR-mediated gene expression of both reporter genes ([1]; 8.0 micromolar): ≥ 90% |

Continued, molecule first:

| SMILES | inhibition at 4 µM [1, 3] [%] | inhibition at 4 µM ([1]; 4 µM, LUC (luciferase)) [%] | inhibition at 8 µM [1, 4] [%] | inhibition at 8 µM ([1]; 8 µM, LUC (luciferase)) [%] | inhibition at 8 µM [2, 5] [%] | inhibition at 8 µM [2, 6] [%] | inhibition at 4 µM [2, 7] [%] | inhibition at 4 µM [2, 8] [%] | also measured |
| --- | --- | --- | --- | --- | --- | --- | --- | --- | --- |
| COc1ccc([C@@H]2CC(=O)c3c(O)cc(O)cc3O2)cc1O [5,7,3′-triOH, 4′methoxyflavanone] | 8 | -6 | 28 | 16 | 51 | 15 | 1 |  |  |
| O=c1cc(-c2ccc(O)cc2)oc2ccccc12 [4′-hydroxyflavone] | 31 | -62 | 49 | -81 | 49 | -49 | 49 | -43 |  |
| O=c1cc(-c2ccc(O)c(O)c2)oc2cccc(O)c12 [5,3′,4′-trihydroxyflavone] | 46 | -7 | 65 | 55 |  |  |  |  | inhibition at 4 µM [2, 9]: 27%; inhibition at 4 µM [2, 10]: -16%; inhibition at 8 µM [2, 11]: 40%; inhibition at 8 µM [2, 12]: -24% |
| O=c1cc(-c2ccc(O)cc2)oc2cc(O)ccc12 [7,4′-dihydroxyflavone] | 41 | -16 | 55 | -49 |  |  |  |  | inhibition at 4 µM [2, 9]: 47%; inhibition at 4 µM [2, 10]: -92%; inhibition at 8 µM [2, 11]: 64%; inhibition at 8 µM [2, 12]: -38% |
| O=c1cc(-c2ccc(O)c(O)c2)oc2cc(O)cc(O)c12 [5,7,3′,4′-tetrahydroxyflavone] | 82 | 76 | 95 | 95 | 55 | -3 | 33 | -8 | inhibition of PR-mediated gene expression of both reporter genes ([1]; 4.0 micromolar): at least 70%; inhibition of PR-mediated gene expression of both reporter genes ([1]; 8.0 micromolar): ≥ 90%; IC50 ([1]; R5020, alkaline phosphatase and luciferase, read-out: IC50, inhibition of PR-mediated induction of gene expression): 1000 to 2000 nM |
| O=C1CC(c2ccc(O)c(O)c2)Oc2cc(O)cc(O)c21 (stereo not shown) [5,7,3′,4′-tetrahydroxyflavanone] | 8 | 3 | 40 | 23 |  |  |  |  | inhibition at 4 µM [2, 9]: 4%; inhibition at 4 µM [2, 10]: 5%; inhibition at 8 µM [2, 11]: -4%; inhibition at 8 µM [2, 12]: 18% |
| O=c1cc(-c2ccc(O)cc2)oc2cccc(O)c12 [5,4′-dihydroxyflavone] | 23 | -12 | 74 | 80 | 33 | 13 | 34 | 13 |  |
| O=c1cc(-c2cc(O)c(O)c(O)c2)oc2cc(O)cc(O)c12 [5,7,3′4′,5′-pentahydroxyflavone] |  |  |  |  |  |  |  |  | % Inhibition of PR Induction [1, 3]: 12%; % Inhibition of PR Induction ([1]; 4 µM, LUC (luciferase)): −97%; % Inhibition of PR Induction [1, 4]: 45%; % Inhibition of PR Induction ([1]; 8 µM, LUC (luciferase)): −19%; % Inhibition of GR Induction [2, 3]: −19%; % Inhibition of GR Induction ([2]; 4 µM, LUC (luciferase)): 5%; % Inhibition of GR Induction [2, 4]: 46%; % Inhibition of GR Induction ([2]; 8 µM, LUC (luciferase)): −25% |
| O=c1cc(-c2ccc(O)c(O)c2)oc2ccccc12 [3′,4′-dihydroxyflavone] | 8 | -64 | 27 | -14 | 38 | -6 | -15 | -2 |  |
